Data set [1] deals with Rattus norvegicus. The experiment in a line: Antianxiety activity in Long-Evans rat assessed as reduction in motor activity at 5 mg/kg, po after 2 hrs relative to vehicle-treated control. The arrangement: scale not given: the % may be the effect or the level left. The data set is classed as functional.
Data set [2] can be described thus: Acute toxicity in po dosed mouse. The data set is classed as organism-based. The conditions noted are these: in vivo.
Data set [3] relates to Rattus norvegicus. The experiment in a line: Antihypertensive activity in spontaneously hypertensive rat model assessed as reduction in blood pressure at 3 mg/kg, po after 3 hrs. Also noted: scale not given: the % may be the effect or the level left. The data set is classed as functional.
For data set [4], the system named is Rattus norvegicus. The experiment in a line: Antidiarrheal activity in Charles River rat assessed as inhibition of castor oil-induced diarrhea by measuring protected animals at 0.2 mg/kg, po administered 1 hr prior to castor oil challenge measured after 1 hr relative to vehicle-treated control. In kind it is functional.
Data set [5] concerns Mus musculus. The experiment in a line: Antianxiety activity in albino BALB/cJ mouse assessed as reduction in footshock-induced fighting behavior at 5 mg/kg, po after 30 to 90 mins. The data set is classed as functional. Also noted: scale not given: the % may be the effect or the level left.
The subject of another data set is Canis familiaris. The data set can be described thus: Antianxiety activity in po dosed dog assessed as ataxia administered as single dose measured up to 24 hrs. The data set is classed as functional. The settings on record: Canis lupus familiaris, read-out: MED.
The test system of another data set is Rhesus monkey. The experiment in a line: Antianxiety activity in po dosed rhesus monkey assessed as antiagressive behavior measured every hour post dosing. In kind it is functional. The settings on record: Macaca mulatta, read-out: MED.
Data set [6] has as its system Mus musculus. The experiment in a line: Analgesic activity in po dosed mouse assessed as inhibition of acetic acid-induced writhing administered 30 mins prior to acetic acid challenge measured after 5 mins for 20 mins. The data set is classed as functional.
In data set [7] the test system is Mus musculus. The data set can be described thus: Antianxiety activity in albino BALB/cJ mouse assessed as reduction in footshock-induced fighting behavior at 10 mg/kg, po after 30 to 90 mins. The arrangement: scale not given: the % may be the effect or the level left. In kind it is functional.
Data set [8] relates to Rattus norvegicus. The experiment in a line: Antidiarrheal activity in Charles River rat assessed as inhibition of castor oil-induced diarrhea by measuring protected animals at 0.1 mg/kg, po administered 1 hr prior to castor oil challenge measured after 1 hr relative to vehicle-treated control. The data set is classed as functional.
Data set [9] deals with Mus musculus. The data set can be described thus: Anticonvulsant activity in po dosed mouse assessed as dose required to protect 80% of animal measured after 1 to 4 hrs by audiogenic seizure test. The data set is classed as functional.
Data set [10] has as its system Rattus norvegicus. The data set can be described thus: Analgesic activity in po dosed Sprague-Dawley rat after 15 to 90 mins by tail flick test. In kind it is functional.
In data set [11] the test system is Rattus norvegicus. The data set can be described thus: Antihypertensive activity in spontaneously hypertensive rat model assessed as reduction in blood pressure at 3 mg/kg, po after 24 hrs. Also noted: scale not given: the % may be the effect or the level left. In kind it is functional.
The subject of data set [12] is Rattus norvegicus. The experiment in a line: Antihypertensive activity in spontaneously hypertensive rat model assessed as reduction in blood pressure at 0.3 mg/kg, po after 3 hrs. In kind it is functional. Also noted: scale not given: the % may be the effect or the level left.
Data set [13] has as its system Felis catus. The experiment in a line: Hypnotic activity in cat assessed as increase in total sleep time at 0.5 mg/kg administered orally through diet measured for 12 hrs by EEG analysis. The data set is classed as functional. The conditions noted are these: route oral.
Data set [14] has as its system Rattus norvegicus. The data set can be described thus: Antihypertensive activity in spontaneously hypertensive rat model assessed as reduction in blood pressure at 0.3 mg/kg, po after 24 hrs. Also noted: scale not given: the % may be the effect or the level left. The data set is classed as functional.
Data set [15] deals with Felis catus. The data set can be described thus: Hypnotic activity in cat assessed as increase in non-REM sleep time at 0.5 mg/kg administered orally through diet measured for 12 hrs by EEG analysis. In kind it is functional. The settings on record: route oral.
Data set [16] concerns Rattus norvegicus. The data set can be described thus: Antipsychotic activity in rat assessed as reduction of methamphetamine-induced hyperactivity at 5 mg/kg, po administered prior to methamphetamine challenge relative to vehicle-treated control. In kind it is functional. The arrangement: scale not given: the % may be the effect or the level left.
Data set [17] relates to Rattus norvegicus. The experiment in a line: Antipsychotic activity in rat assessed as reduction of methamphetamine-induced hyperactivity at 2.5 mg/kg, po administered prior to methamphetamine challenge relative to vehicle-treated control. The data set is classed as functional. The arrangement: scale not given: the % may be the effect or the level left.
Data set [18] concerns Rattus norvegicus. The experiment in a line: Antipsychotic activity in rat assessed as reduction of methamphetamine-induced hyperactivity at 2 mg/kg, po administered prior to methamphetamine challenge relative to vehicle-treated control. The data set is classed as functional. Also noted: scale not given: the % may be the effect or the level left.
In data set [19] the test system is Rattus norvegicus. The experiment in a line: Antihypertensive activity in spontaneously hypertensive rat model assessed as reduction in blood pressure at 1 mg/kg, po after 3 hrs. In kind it is functional. The arrangement: scale not given: the % may be the effect or the level left.
For data set [20], the species on record is Rattus norvegicus. The experiment in a line: animal or person. The data set is classed as functional. The settings on record: Charles River, route oral.
Description: Antidiarrheal activity in Charles River rat assessed as inhibition of castor oil-induced diarrhea by measuring protected animals at 0.5 mg/kg, po administered 1 hr prior to castor oil challenge measured after 1 hr relative to vehicle-treated control
Data set [21] deals with Rattus norvegicus. The data set can be described thus: Antihypertensive activity in spontaneously hypertensive rat model assessed as reduction in blood pressure at 1 mg/kg, po after 24 hrs. The data set is classed as functional. Also noted: scale not given: the % may be the effect or the level left.
Data set [22] concerns Rattus norvegicus. The data set can be described thus: Antianxiety activity in Long-Evans rat assessed as reduction in motor activity at 1 mg/kg, po after 2 hrs relative to vehicle-treated control. The data set is classed as functional. The arrangement: scale not given: the % may be the effect or the level left.
For data set [23], the system named is Rattus norvegicus. The experiment in a line: Antipsychotic activity in rat assessed as reduction of methamphetamine-induced hyperactivity at 10 mg/kg, po administered prior to methamphetamine challenge relative to vehicle-treated control. The data set is classed as functional. The arrangement: scale not given: the % may be the effect or the level left.
In data set [24] the test system is Rattus norvegicus. The data set can be described thus: Antianxiety activity in Long-Evans rat assessed as reduction in motor activity at 20 mg/kg, po after 2 hrs relative to vehicle-treated control. In kind it is functional. Also noted: scale not given: the % may be the effect or the level left.
The subject of data set [25] is Mus musculus. The experiment in a line: Analgesic activity in mouse assessed as inhibition of acetic acid-induced writhing at 10 mg/kg, po administered 30 mins prior to acetic acid challenge measured after 5 mins for 20 mins. The data set is classed as functional.
The test system of data set [26] is Rattus norvegicus. The data set can be described thus: Antianxiety activity in Long-Evans rat assessed as reduction in motor activity at 10 mg/kg, po after 2 hrs relative to vehicle-treated control. The data set is classed as functional. The arrangement: scale not given: the % may be the effect or the level left.
Data set [27] concerns Rattus norvegicus. The experiment in a line: Increase in methamphetamine-induced hyperactivity in rat at 5 mg/kg, po administered prior to methamphetamine challenge relative to vehicle-treated control. In kind it is functional.
The subject of data set [28] is Rattus norvegicus. The data set can be described thus: Antipsychotic activity in rat assessed as reduction of methamphetamine-induced hyperactivity at 20 mg/kg, po administered prior to methamphetamine challenge relative to vehicle-treated control. The data set is classed as functional. The arrangement: scale not given: the % may be the effect or the level left.
Data set [29] concerns Rattus norvegicus. The data set can be described thus: Antihypertensive activity in spontaneously hypertensive rat model assessed as reduction in blood pressure at 30 mg/kg, po after 3 hrs. The data set is classed as functional. Also noted: scale not given: the % may be the effect or the level left.
The subject of data set [30] is Rattus norvegicus. The experiment in a line: Antihypertensive activity in spontaneously hypertensive rat model assessed as reduction in blood pressure at 30 mg/kg, po after 24 hrs. The data set is classed as functional. Also noted: scale not given: the % may be the effect or the level left.

Molecules are shown by their SMILES.

On to `CCCCCC(C)C(C)c1cc(O)c2c(c1)OC(C)(C)C1=C2CC(C)CC1` (stereo unspecified), for which the Activity was found to be 96% in the data set on Rattus norvegicus [1]; 37% in the data set on Rattus norvegicus [3]; 58% in the data set on Mus musculus [5]; 92% in the data set on Mus musculus [7]; 10 mg/kg in the data set with Mus musculus [9]; 28% with Rattus norvegicus [11]. In addition, the Activity in the data set on Rattus norvegicus [12] is 19%; with Rattus norvegicus [14] it was 12%; in the data set with Rattus norvegicus [16], 70%; in the data set with Rattus norvegicus [17] it was 48%. For the same compound, in data set [2], the LD50 is at least 1000 mg/kg. Further, the inhibition in vivo at 0.2 mg/kg in the data set on Rattus norvegicus [4] came out at 80%. Also, the minimal effective dose with Canis familiaris was found to be 1 mg/kg; in the data set with Rhesus monkey, 10 mg/kg. The results for the median effective dose (ED50) in the data set with Mus musculus [6] and in the data set with Rattus norvegicus [10] were 3 mg/kg and 1.4 mg/kg, respectively. Besides, in the data set on Rattus norvegicus [8], the inhibition in vivo at 0.1 mg/kg was 50%. In addition, the Time in the data set with Felis catus [13] amounted to 62 min; with Felis catus [15] it was 122 min.
Regarding `CC1CSC2=C1c1c(O)cc(C(C)CCCc3ccc(F)cc3)cc1OC2(C)C` (stereo unspecified), the Activity in the data set with Rattus norvegicus [1] is on record as 85%; in the data set on Mus musculus [7], 100%; in the data set with Rattus norvegicus [18] it was 55%; in the data set on Rattus norvegicus [16] it was 78%. Besides, the LD50 in data set [2] was 500 mg/kg. The ED50 in the data set with Mus musculus [6] came to 8.4 mg/kg. Moreover, the Time in the data set on Felis catus [13] was determined as 11 min; in the data set with Felis catus [15] it was 8 min.
In the case of `CC1CCC2=C(C1)c1c(O)cc(C(C)CCCCc3ccc(F)cc3)cc1OC2(C)C` (stereo unspecified), the Activity in the data set on Rattus norvegicus [1] worked out at 73%; in the data set on Rattus norvegicus [19] it was 7%; with Rattus norvegicus [3] it was 33%; in the data set on Mus musculus [5], 4%; in the data set with Rattus norvegicus [11], 14%; in the data set with Rattus norvegicus [21], 4%. For the same compound, the Activity with Rattus norvegicus [22] worked out at 40%; in the data set on Rattus norvegicus [23], 71%; in the data set on Rattus norvegicus [16], 65%. Besides, the LD50 in data set [2] is 750 mg/kg. Moreover, the median effective dose (ED50) with Mus musculus [6] came to 20.5 mg/kg. The inhibition in vivo at 0.5 mg/kg in the data set listed under Rattus norvegicus [20] was found to be 80%.
Turning to `CC1CCC2=C(C1)c1c(O)cc(C(C)C(C)CCCc3ccc(F)cc3)cc1OC2(C)C` (stereo unspecified), the Activity with Rattus norvegicus [19] worked out at 9%; in the data set on Rattus norvegicus [3], 33%; in the data set with Rattus norvegicus [24] it was 62%; in the data set with Mus musculus [7], 16%; in the data set on Rattus norvegicus [11], 5%; in the data set on Rattus norvegicus [26], 36%. Further, the values for the Activity in the data set with Rattus norvegicus [21] and with Rattus norvegicus [27] were 0% and 23%, respectively. Besides, the LD50 in data set [2] turned out to be 500 mg/kg. In the data set with Canis familiaris, the minimal effective dose was 10 mg/kg. Also, in the data set on Mus musculus [25], the inhibition in vivo at 10 mg/kg worked out at 32%.
As for `C#CCN1CCC2=C(C1)c1c(O)cc(C(C)CCCCc3ccc(F)cc3)cc1OC2(C)C` (stereo unspecified), the Activity is 33% in the data set on Rattus norvegicus [1]; 0% in the data set with Mus musculus [5]; 70% with Rattus norvegicus [28]; 0% with Rattus norvegicus [29]; 50% in the data set on Rattus norvegicus [23]; 0% in the data set on Rattus norvegicus [30]. Further, the LD50 in data set [2] was at least 1000 mg/kg. Also, in the data set on Mus musculus [6], the ED50 worked out at 48 mg/kg. This compound also yielded an inhibition in vivo at 0.5 mg/kg in the data set listed under Rattus norvegicus [20] of 30%. Besides, the values for the Time in the data set with Felis catus [13] and with Felis catus [15] were 61 min and 7 min, respectively.
